Test results from article PMC11495047 (Journal of Virology, 2024).
Read-outs that look alike come from different tables or passages of the source.

Tests used:
[1] = test system: rCedV; experiment: microbe, parasite or virus in culture; format: cell-based
[2] = target: CedV vRdRp (rCedV TC-tr minigenome) (Cedar virus, UniProt J7GXK9); format: cell-based
[3] = target: GhV vRdRp (rGhV TC-tr minigenome) (Ghana virus, UniProt H9M6P4); format: cell-based
[4] = target: NiV vRdRp (rNiV TC-tr minigenome) (Nipah virus, UniProt Q997F0)
[5] = in vivo; cited from earlier work
[6] = test system: rNiV; experiment: microbe, parasite or virus in culture; format: cell-based

SMILES	IC50 ([1]; read-out: IC50) [nM]	IC50 ([2]; read-out: IC50) [nM]	IC50 [3] [nM]	susceptibility of rNiV TC-tr minigenome [4]	oral bioavailability [5]	IC50 [6] [nM]	IC50 ([6]; Henipavirus nipahense, BHK) [nM]	IC50 ([1]; Cedar virus, BSR-T7/5, 24 h) [nM]	IC50 [2] [nM]
NC(=O)c1c(F)cccc1-c1cccc2cnccc12 [GHP-88309]	1600	5700	1700	no susceptibility	high oral bioavailability	–	–	–	–
O=c1ccn([C@@H]2O[C@](F)(CO)[C@@H](O)[C@H]2O)c(=O)[nH]1 [EIDD-2749, 4′-Fluorouridine]	–	–	–	–	–	2900	2600	700	2100
